Holding throughout (format): cell-based
The test system of assay [1] is chick ciliary ganglionic (CG) neurons. In words: Survival of embryonic chick ciliary ganglionic (CG) neurons, 24 h, counting of surviving neurons. Conditions: for relative potency of TGF-β isoforms in the synergism with GDNF: not shown; for CG neuron survival with further addition of TGF-β: TGF-β 2.5 ng/ml, CNTF non-saturating, OSM, LIF, IL-6 at 10 ng/ml; for support of CG neuron survival by the single cytokine: at 10 ng/ml, without TGF-β. As for the experimental part: (§1) Embryonic chick ciliary (CG), dorsal root (DRG), and sympathetic (SG) ganglia at embryonic day(s) (E) 8, 10, and 12, were dissected, freed from nerve roots and connective tissue and collected in CME. Ganglia were incubated in trypsin (ICN), washed and dissociated by trituration using fire-polished Pasteur pipettes. Cultures were set up in 96-well microtiter plates (Costar, A/2), precoated with poly-L-ornithine and laminin at a density of 1,200-1,500 cells/well in DMEM supplemented with N1 additives, 0.25% BSA, and 0.1% PSN (DME/N1) and incubated at 37° C. in a 5% CO2 incubator.
(§2) At appropriate times (CG: 24 h, DRG: 48 h, SG: 72 h) cultures were fixed by addition of 2.5% glutardialdehyde in phosphate buffered saline (PBS). Numbers of surviving neurons were determined by direct counting of 30% of the surface area using phase contrast microscopy.
Phosphatidylinositol-specific phospholipase C (PIPLC) is an enzyme that specifically cleaves glycosyl-phosphatidylinositol (GPI) linkages. Embryonic chick ciliary ganglionic neurons (E8) were isolated and seeded as described before. Neurons were incubated for 1 h at 37° C. with 1) 100 mU PIPLC or II) 100 mU PIPLC+2 ng/ml TGFβ or III) without enzyme and then growth factors were added. The number of surviving neurons was determined 24 h later.

Assay [2] has as its system embryonic chicken dorsal root ganglia (DRG) neurons. In words: Survival of dissociated embryonic chick dorsal root ganglia (DRG) neurons, 48 h, counting of surviving neurons. To be noted: for effect on DRG neuron survival when added together with GDF-5: factor at saturating concentration plus GDF-5 20 ng/ml, E8, 48 h. How it is done:
Dissociated cultures of embryonic chicken dorsal root ganglia (DRG) were generated as described in details by Krieglstein and Unsicker (Neurochem. Res., 21(7) (1996) 843-850). Briefly, DRGs from white Leghorn chick embryos (day 8) were dissected in Ca^2+-Mg^2+ free Hanks' balanced salt solution. After incubation in 0.08% trypsin for 15 min ganglia were dissociated by trituration. Cells were seeded in polyomithin-laminin coated 96-well microtiter plates (A/2 Costar) at a density of 1,200 cells/well. Growth factors were applied at the time of plating in a final volume of […] Dulbecco's Modified Eagle's Medium supplemented with 0.25% bovine serum albumin, N1 additives and 100 U/ml penicillin. As a positive control, nerve growth factor (NGF) was used at the saturating concentration of 5 ng/ml. After 48 h of incubation at 37° C. in a humidified atmosphere containing 5% CO2, cultures were fixed with 2.5% glutaraldehyde. Neuronal cells were identified by their phase-bright and neurite-bearing morphologies and counted within 30% of the total surface area using phase contrast microscopy. In the first set of experiments we tested the survival promoting effect of several growth factors of the bone morphogenetic protein family.
as §1, §2
Dissociated cultures of embryonic chicken dorsal root ganglia (DRGs) were generated as described in details by Krieglstein and Unsicker (Dev. Brain. Rees. 93 (1996) 10-17). Briefly, DRGs were dissected in Ca^2+-Mg^2+ free Hank's balanced salt solution (CMF). After incubation in 0.08% trypsin (BioWhittaker) for 15 min, ganglia were dissociated by gentle trituration using fire-polished Pasteur pipettes. Cells in suspension (neuron/non-neuron ratio 1:2) were seeded in polyomithin-laminin coated 96-well microtiter plates (A/2 Costar) at a density of 1,200 cells/well. Growth factors were applied at the time of plating in a final volume of 50 μl Dulbecco's Modified Eagle's Medium supplemented with 0.25% bovine serum albumin, N1 additives (Bottenstein et al., Exp. Cell Res. 125 (1980) 183-190) and 100 U/ml penicillin. As a positive control, nerve growth factor (NGF) was used at the saturating concentration of 10 ng/ml. After 48 h of incubation at 37° C. in a humidified atmosphere containing 5% CO2, cultures were fixed with 2.5% glutaraldehyde in phosphate buffered saline (PBS). Neuronal cells were identified by their phase-bright and neurite-bearing morphologies and counted within 30% of the total surface area using phase contrast microscopy. All experiments were performed in at least triplicate in two independent experiments. Data are presented as mean±SEM. Statistical comparisons were made with student's double t-test, ANOVA and MicrocalOrigin software. Differences were considered statistically significant at *P<0.05, **P<0.01, **P<0.001.

Assay [3] deals with chick sympathetic ganglionic (SG) neurons. In words: Survival of embryonic chick sympathetic ganglionic (SG) neurons, 72 h, counting of surviving neurons. Conditions: E8, serum-free, factor added by itself. As for the experimental part:
as §1, §2

Assay [4] concerns dopaminergic neurons in the ventral midbrain (mesencephalic cultures E14/DIV8). In words: Survival of TH-immunoreactive neurons in mesencephalic cultures (E14/DIV8) treated with FGF-2. To be noted: FGF-2 10 ng/ml, 8 days in culture. As for the experimental part:
FIG. 12 depicts the ffect of neutralizing endogenous TGF-β in mesencephalic neuron cul-tures. Numbers of surviving TH-immunoreactive neurons of mesencephalic cultures (E14/DIV8) after 8 days in culture treated with FGF-2 (10 ng/ml), medium only (control), in presence or absence of neutralizing antibodies to TGF-β1/-β2/-β3 (10 μg/ml). Data are given as mean±SEM (n=3), P-values are ***P<0.001 for increased survival as compared with control cultures and +P<0.05 or +++P<0.001 for decreased survival following antibody treatment.
Fibroblast growth factor (FGF)-2 is known to act as a neurotrophic factor for dopaminergic neurons in the ventral midbrain. […] As TGF-β is known to be a product of astroglial cells, it was tested whether TGF-β-neutralizing antibodies can abolish the neurotrophic effect of FGF-2 on cultured neurons derived from the embryonic midbrain floor.

In assay [5] the test system is rat embryonic mesencephalic dopaminergic neurons (E14). In words: Survival of rat embryonic mesencephalic dopaminergic neurons, count of tyrosine hydroxylase (TH) immunoreactive neurons after 8 days. Conditions: GDNF 10 ng/ml, TGF-β3 2 ng/ml, 8 days in culture. How it is done: FIG. 8 depicts the survival promoting effect of GDNF on rat embryonic mesencephalic dopaminergic neurons (E14) is dependent on the presence of TGF-β. Dissociated cultures were treated with GDNF (10 ng/ml), with GDNF in the presence of anti-TGF-β1, -β2, -β3 (10 μg/ml), with TGF-β3 (2 ng/ml) or without any growth factor added (control) for 8 days in culture. Numbers of dopaminergic neurons were determined by counting the numbers of tyrosine hydroxylase (TH) immunoreactive neurons.

Where [6] appears, read: PIPLC 0.1 U/ml prior to plating.

The record followed here is US6790824B1, “Cytokines having neurotrophic activity” (Biopharm Gesellschaft zur biotechnologischen Entwicklung …, priority 1997, dated 2004).

Take “Phosphatidylinositol-specific phospholipase C [PIPLC, reference compound]”: in assay [1] (setting [6]), the “effect of PIPLC pretreatment on the survival promoting effect of CNTF” value is “effectively reduced the survival promoting effect of CNTF”, the “effect of PIPLC pretreatment on the survival promoting effect of FGF-2” value is on record as “without affecting the survival promoting effect of FGF-2” and the “effect of PIPLC pretreatment on the survival promoting effect of GDNF with TGF-β” value is given as “significantly reduced the survival promoting effect of GDNF in its combination with TGF-β”. The “effect of PIPLC pretreatment in the presence of TGF-β on the survival promoting effect of GDNF” value in assay [1] (PIPLC pretreatment with 2 ng/ml TGF-β1) is on record as “the survival promoting effect of GDNF was maintained”.
With TGF-β1: isoform of TGF-β, the “DRG neuron survival, single factor in serum-free medium” value in assay [2] (E8, serum-free, factor added by itself) is “virtually no survival promoting effect”. Also, the “effect on DRG neuron survival when added together with GDF-5” value (from here on “effect on DRG neuron survival”) in assay [2] is reported as “synergistic or additive effects”. Besides, the “relative potency of TGF-β isoforms in the synergism with GDNF” value (“relative potency of TGF-β isoforms” below) in assay [1] is given as “equipotent”. For the same substance, in assay [3], the “SG neuron survival, single factor in serum-free medium” value is “virtually no survival promoting effect”.
As for TGF-β2: isoform of TGF-β, the “relative potency of TGF-β isoforms” value in assay [1] was “equipotent”.
For TGF-β3: isoform of TGF-β, in assay [2], the “effect on DRG neuron survival” value is listed as “synergistic or additive effects”. The “relative potency of TGF-β isoforms” value in assay [1] is on record as “equipotent”.
On to epidermal growth factor [EGF], for which the “effect on DRG neuron survival” value in assay [2] was “synergistic or additive effects”.
For fibroblast growth factor-2 [FGF-2], the “effect on DRG neuron survival” value in assay [2] is “synergistic or additive effects”. The “increase in survival of the cells compared to the negative control (medium alone)” value in assay [4] came to 1.7 fold.
For interleukin-6 [IL-6], in assay [1], the “CG neuron survival with further addition of TGF-β” value is “did not increase the effects of these cytokines beyond background levels” and the “support of CG neuron survival by the single cytokine” value was “did not support CG neurons”.
On the same counts, the results for leukemia inhibiting factor [LIF] are “did not increase the effects of these cytokines beyond background levels” and “did not support CG neurons”.
Turning to transforming growth factor beta [TGF-β], the “EC50 of the synergistic survival effect” value in assay [1] (factor titrated in combination with 2 ng/ml of the other factor (GDNF/TGF-β), serum-free) stood at 0.06 ng/mL. Moreover, in assay [1] (serum-free, each at the saturating amount of 2 ng/ml), the “CG neuron survival, single factor in fully-defined medium” value is given as “only marginal survival promoting effects”. Besides, in assay [5], the “survival of dopaminergic neurons relative to untreated control cultures” value is listed as 200%.
transforming growth factor-a [TGF-α]: in assay [2], the “effect on DRG neuron survival” value is on record as “synergistic or additive effects”.
